Assay results taken from patent publication EP2292587A1, “PHARMACEUTICAL COMPOSITION FOR INHIBITING THE TRANSCRIPTION FACTOR INDUCIBLE BY HYPOXIA, MODULATORS OF PATHOLOGICAL PROCESSES OF ANGIOGENESIS, ONCOGENESIS, INFLAMMATION, APOPTOSIS, AND CELLULAR THERAPY” (Fundacion De La Comunidad Valenciana Centro De …, priority 2008, dated 2009).
Where two headings read alike, the source gives them in different places.

System: HIF
Test: luciferase cell assay based on the HIF response elements (HRE), HeLa 9XHRE-LUC
Set-up: species or system human
Conditions: cell assay based on the HIF response elements (Example 1), HeLa 9XHRE-LUC, read-out: IC50 HRE
From the text: In order to identify direct inhibitors of the activity of HIF, a stable recombinant line was first constructed from the cervical tumor line, known in scientific literature as HeLa, which contained the deoxyribonucleic acid (DNA) sequences of the region located between positions -985 and -951 of the human vascular endothelial growth factor (hVEGF), repeated nine times (9X) and fused to the luciferase reporter gene (LUC). This plasmid, provided by Dr. Manuel Ortiz de Landazuri from the Hospital de La Princesa of Madrid, called 9XHRE-LUC, was prepared using a commercial kit (Endofree Maxi-Prep; Qiagen, Inc., Valencia, CA). The transfections were performed with FuGene6 (Roche, cat.1814443) according to the manufacturer's instructions, the µg DNA: µg FuGene ratio was 1:3. The transfected cell lines were generated by cotransfection with the vector pCMV-Hygrom which expressed a hygromycin resistance gene in mammalian cells, allowing the selection of the transfected clones. After 48 hours, the growth medium was substituted with fresh medium containing 100 µg/ml hygromycin (Sigma), the clones resistant to the antibiotic were collected and analyzed by means of RT-PCR to select the clone with the desired construct. Routinely, the HeLa 9XHRE-LUC cell line was maintained in exponential growth by means of performing subcultures in DMEM (Invitrogen-Life Technologies, Inc., Carlsbad, CA), supplemented with 10% inactivated fetal bovine serum (Whittacker Bioproducts), penicillin (50 IU/ml), streptomycin (50 µg/ml) (Invitrogen-Life Technologies, Inc., Carlsbad, CA). The cells were cultured at 37°C with a humidified atmosphere containing 5% CO2 and 300 nM Desferoxamine (DFX; Sigma St. Louis, MO).
The compounds of the Collection of the CIPF, coming from a selection of commercial collections of Sigma-Aldrich, were solubilized in DMSO at a final concentration of 5 mM and preserved at -80°C. The concentration of these compounds in the luciferase assay was 1 mcM finally in the well of the multi-well plate in which the reaction was carried out. The luciferase assays were performed in white 96-well plates (Valtecknova ref. 3917), using the kit Bright-Glo™ Luciferase Assay System (Promega, Inc., Madison, WI) following the instructions supplied by the manufacturer.
According to the methodology of the cell assay based on the HIF response elements (Example 1), the intermediate compounds of the synthesis and several synthesized analogs were tested to obtain the SAR of FM19G11.

**Q.** With `Cc1ccc(C(=O)COC(=O)c2cccc(NC(=O)c3ccc([N+](=O)[O-])cc3)c2)cc1` [Compound 22, 2-oxo-2-(p-tolyl)ethyl 3-(4-nitrobenzamido)benzoate] as the compound, how does the IC50 (Homo sapiens) read?
**A.** The IC50 was 2500 nM.

**Q.** For `Cc1ccc(C(=O)COC(=O)c2cccc(NC(=O)c3ccccc3[N+](=O)[O-])c2)cc1` [Compound 25, 2-oxo-2-(p-tolyl)ethyl 3-(2-nitrobenzamido)benzoate], which IC50 (Homo sapiens) is on record?
**A.** The IC50 was 2800 nM.

**Q.** `O=C(COC(=O)c1cccc(NC(=O)c2ccc([N+](=O)[O-])cc2[N+](=O)[O-])c1)c1ccccc1` [Compound 19, 2-phenyl-2-oxoethyl 3-(2,4-(dinitro)benzamido)benzoate] was tested. Which IC50 (Homo sapiens) did it give?
**A.** Its IC50 is over 1000 nM.

**Q.** How did the IC50 (Homo sapiens) turn out when `O=C(O)c1cccc(NC(=O)c2ccc([N+](=O)[O-])cc2C(F)(F)F)c1` [Compound 9, 3-(4-nitro-2-(trifluoromethyl)benzamido)benzoic acid] was run?
**A.** The IC50 was over 1000 nM.

**Q.** How did the IC50 (Homo sapiens) turn out when `Cc1ccc(C(=O)COC(=O)c2cccc(NC(=O)c3ccc(C(F)(F)F)cc3[N+](=O)[O-])c2)cc1` [Compound 7, 2-oxo-2-(p-tolyl)ethyl 3-(2-nitro-4-(trifluoromethyl)benzamido)benzoate] was run?
**A.** Its IC50 is 84 nM.

**Q.** Which IC50 does the source give for `O=C(COC(=O)c1cccc(NC(=O)c2ccc([N+](=O)[O-])cc2[N+](=O)[O-])c1)c1ccc(C(F)(F)F)cc1` [Compound 17, 2-oxo-2-(4-trifluoromethyl) ethyl 3-(2,4-(dinitro)benzamido)benzoate] here?
**A.** Its IC50 is 1000 nM.

**Q.** How did the IC50 (Homo sapiens) turn out when `O=C(O)c1cccc(NC(=O)c2ccc([N+](=O)[O-])cc2[N+](=O)[O-])c1` [Compound 3, 3-((2,4-dinitro)benzamido)benzoic acid] was run?
**A.** The IC50 was over 1000 nM.

**Q.** How did the IC50 (Homo sapiens) turn out when `O=C(O)c1ccc(C(=O)COC(=O)c2cccc(NC(=O)c3ccc([N+](=O)[O-])cc3[N+](=O)[O-])c2)cc1` [Compound 29, 4-(2-(3-(2,4-dinitrobenzamido)benzoyloxy)-acetyl)benzoic acid] was run?
**A.** The IC50 was 1400 nM.

**Q.** With `O=C(O)c1cccc(NC(=O)c2ccc(C(F)(F)F)cc2[N+](=O)[O-])c1` [Compound 6, 3-(2-nitro-4-(trifluoromethyl)benzamido)benzoic acid] as the compound, how does the IC50 (Homo sapiens) read?
**A.** The IC50 was over 1000 nM.

**Q.** With `COC(=O)c1cccc(NC(=O)c2ccc([N+](=O)[O-])cc2C(F)(F)F)c1` [Compound 8, methyl 3-(4-nitro-2-(trifluoromethyl)benzamido)benzoate] as the compound, how does the IC50 (Homo sapiens) read?
**A.** Its IC50 is over 1000 nM.

**Q.** How did the IC50 (Homo sapiens) turn out when `Cc1ccc(C(=O)COC(=O)c2cccc(NC(=O)c3ccc(C(F)(F)F)cc3C(F)(F)F)c2)cc1` [Compound 13, 2-oxo-2-(p-tolyl)ethyl 3-(2,4-bis(trifluoromethyl)benzamido)benzoate] was run?
**A.** The IC50 was 300 nM.

**Q.** Which IC50 (Homo sapiens) does the source give for `COC(=O)c1cccc(NC(=O)c2ccc(C(F)(F)F)cc2[N+](=O)[O-])c1` [Compound 5, methyl 3-(2-nitro-4-(trifluoromethyl)benzamido)benzoate] here?
**A.** The IC50 was over 1000 nM.

**Q.** For `Cc1ccc(C(=O)COC(=O)c2cccc(NC(=O)c3ccccc3)c2)cc1` [Compound 16, 2-oxo-2-(p-tolyl)ethyl 3-(benzamido)benzoate], which IC50 (Homo sapiens) is on record?
**A.** Its IC50 is over 1000 nM.

**Q.** How did the IC50 (Homo sapiens) turn out when `COC(=O)c1cccc(NC(=O)c2ccc([N+](=O)[O-])cc2[N+](=O)[O-])c1` [Compound 2, methyl 3-((2,4-dinitro)benzamido)benzoate] was run?
**A.** The IC50 was over 1000 nM.

**Q.** Which IC50 does the source give for `O=C(COC(=O)c1cccc(NC(=O)c2ccc([N+](=O)[O-])cc2[N+](=O)[O-])c1)c1ccc(O)cc1` [Compound 26, 2-(4-hydroxyphenyl)-2-oxoethyl 3-(2,4-(dinitro)benzamido)benzoate] here?
**A.** Its IC50 is 360 nM.

**Q.** With `COC(=O)c1cccc(NC(=O)c2ccccc2[N+](=O)[O-])c1` [Compound 23, methyl 3-(2-nitrobenzamido)benzoate] as the compound, how does the IC50 (Homo sapiens) read?
**A.** Its IC50 is over 1000 nM.

**Q.** `O=C(O)c1cccc(NC(=O)c2ccccc2[N+](=O)[O-])c1` [Compound 24, 3-(2-nitrobenzamido)benzoic acid] was tested. Which IC50 (Homo sapiens) did it give?
**A.** Its IC50 is 1400 nM.

**Q.** With `O=C(O)c1cccc(NC(=O)c2ccc(C(F)(F)F)cc2C(F)(F)F)c1` [Compound 12, 3-(2,4-bis-(trifluoromethyl)benzamido)benzoic acid] as the compound, how does the IC50 (Homo sapiens) read?
**A.** Its IC50 is over 1000 nM.

**Q.** How did the IC50 (Homo sapiens) turn out when `Cc1ccc(C(=O)COC(=O)c2cccc(NC(=O)c3ccc([N+](=O)[O-])cc3C(F)(F)F)c2)cc1` [Compound 10, 2-oxo-2-(p-tolyl)ethyl 3-(4-nitro-2-(trifluoromethyl)benzamido)benzoate] was run?
**A.** The IC50 was 140 nM.
